Assay results as given in patent US20230089867A1, “CYCLIC PENTAMER COMPOUNDS AS PROPROTEIN CONVERTASE SUBTILISIN/KEXIN TYPE 9 (PCSK9) INHIBITORS FOR THE TREATMENT OF METABOLIC DISORDER” (Novartis AG, priority 2018, published 2023).

Molecular target: human PCSK9 (Homo sapiens, UniProt Q8NBP7)
Assay: PCSK9 ligand binding TR-FRET assay (interference with binding of human PCSK9 to human LDLR)
Details: for Max % inhibition: PCSK9 FRET assay, efficacy (Amax), 100% = 1 uM unlabeled human PCSK9, 0% = DMSO; for IC50: TR-FRET, human PCSK9 Alexa Fluor 647 / human LDLR extracellular domain-Europium Kryptate, read-out: PCSK9 FRET Assay IC50
Summary of the method: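 Threefold compound dilutions were pre-incubated 30 min with PCSK9, after which 4 nM Europium Kryptate-tagged human LDLR ectodomain was added for a further 2 h.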

Sequence of human PCSK9 (Q8NBP7 153-692): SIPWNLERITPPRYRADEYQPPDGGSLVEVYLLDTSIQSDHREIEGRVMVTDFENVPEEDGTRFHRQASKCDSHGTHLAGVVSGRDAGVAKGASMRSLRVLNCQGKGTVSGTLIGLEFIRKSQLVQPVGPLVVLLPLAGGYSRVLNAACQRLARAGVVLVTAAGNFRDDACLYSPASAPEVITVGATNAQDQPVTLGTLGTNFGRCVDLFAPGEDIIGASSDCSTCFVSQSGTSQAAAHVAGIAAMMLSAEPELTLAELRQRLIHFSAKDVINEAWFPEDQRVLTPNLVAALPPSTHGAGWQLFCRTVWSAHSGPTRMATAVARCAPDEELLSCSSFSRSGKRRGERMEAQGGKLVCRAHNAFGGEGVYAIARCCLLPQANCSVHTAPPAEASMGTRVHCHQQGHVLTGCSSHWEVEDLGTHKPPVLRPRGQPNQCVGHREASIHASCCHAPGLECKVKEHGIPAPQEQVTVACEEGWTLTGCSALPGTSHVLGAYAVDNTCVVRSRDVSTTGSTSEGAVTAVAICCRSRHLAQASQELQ
Sequence of human PCSK9 (Q8NBP7 31-152 partner limits assumed): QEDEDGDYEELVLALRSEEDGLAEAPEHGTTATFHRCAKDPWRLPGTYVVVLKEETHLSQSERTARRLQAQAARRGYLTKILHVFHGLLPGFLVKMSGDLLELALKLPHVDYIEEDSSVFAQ

Max % inhibition [%]	IC50 [nM]	Structure (SMILES)
72.43	18.7	CCOC(=O)c1ncn(-c2ccc(Oc3cc(Cl)ccc3CN3C(=O)C[C@@H](Cc4ccccc4)C(=O)N(C)[C@@H](C)CNC(=O)C[C@H](Cc4ccc(Cl)cc4)N(C)C(=O)[C@H](COC)NC(=O)[C@@H]3C)cc2)c1C [Compound 149, ethyl 1-(4-(2-(((2S,5S,8S,13S,16R)-16-benzyl-8-(4-chlorobenzyl)-5-(methoxymethyl)-2,7,13,14-tetramethyl-3,6,10,15,18-pentaoxo-1,4,7,11,14-pentaazacyclooctadecan-1-yl)methyl)-5-chlorophenoxy)phenyl)-5-methyl-1H-imidazole-4-carboxylate]
104.13	0.8	CCc1ccc(CN2C(=O)C[C@@H](Cc3ccccc3)C(=O)N(C)[C@@H](C)CNC(=O)C[C@H](Cc3ccc(Cl)cc3)N(C)C(=O)[C@H](COC)NC(=O)[C@@H]2C)c(Oc2ccc(-c3cnc(CN4CCCC4)n3C)cc2)c1.Cl [Compound 150, (2S,5S,8S,13S,16R)-16-benzyl-8-(4-chlorobenzyl)-1-(4-ethyl-2-(4-(1-methyl-2-(pyrrolidin-1-ylmethyl)-1H-imidazol-5-yl)phenoxy)benzyl)-5-(methoxymethyl)-2,7,13,14-tetramethyl-1,4,7,11,14-pentaazacyclooctadecane-3,6,10,15,18-pentaone hydrochloride]
64.23	8.8	CCC(O)c1ncc(-c2ccc(Oc3cc(Cl)ccc3CN3C(=O)C[C@@H](Cc4ccccc4)C(=O)N(C)[C@@H](C)CNC(=O)C[C@H](Cc4ccc(Cl)cc4)N(C)C(=O)[C@H](COC)NC(=O)[C@@H]3C)cc2)n1C (stereo partly drawn) [Compound 151, (2S,5S,8S,13S,16R)-16-benzyl-1-(4-chloro-2-(4-(2-(1-hydroxypropyl)-1-methyl-1H-imidazol-5-yl)phenoxy)benzyl)-8-(4-chlorobenzyl)-5-(methoxymethyl)-2,7,13,14-tetramethyl-1,4,7,11,14-pentaazacyclooctadecane-3,6,10,15,18-pentaone]
107.64	1.2	COC[C@@H]1NC(=O)[C@H](C)N(Cc2ccc(Cl)cc2Oc2ccc(-c3cnc([C@@H](C)N4CCCC4)n3C)cc2)C(=O)C[C@@H](Cc2ccccc2)C(=O)N(C)[C@H]2CCCC[C@@H]2NC(=O)C[C@H](Cc2ccc(Cl)cc2)N(C)C1=O [Compound 152, (4S,7S,10S,14R,16aS,20aS)-14-benzyl-11-(4-chloro-2-(4-(1-methyl-2-((R)-1-(pyrrolidin-1-yl)ethyl)-1H-imidazol-5-yl)phenoxy)benzyl)-4-(4-chlorobenzyl)-7-(methoxymethyl)-5,10,16-trimethylhexadecahydrobenzo[l][1,4,7,11,14]pentaazacyclooctadecine-2,6,9,12,15(3H)-pentaone]
80.05	5.1	COC[C@@H]1NC(=O)[C@H](C)N(Cc2c(OC)cccc2Oc2ccc(-c3cnc(CN(C)C)n3C)cc2)C(=O)C[C@@H](Cc2ccccc2)C(=O)N(C)[C@@H](C)CNC(=O)C[C@H](Cc2ccc(Cl)cc2)N(C)C1=O [Compound 154, (2S,5S,8S,13S,16R)-16-benzyl-8-(4-chlorobenzyl)-1-(2-(4-(2-((dimethylamino)methyl)-1-methyl-1H-imidazol-5-yl)phenoxy)-6-methoxybenzyl)-5-(methoxymethyl)-2,7,13,14-tetramethyl-1,4,7,11,14-pentaazacyclooctadecane-3,6,10,15,18-pentaone]
98.43	0.8	COC[C@@H]1NC(=O)[C@H](C)N(Cc2ccc(Cl)cc2Oc2ccc(-c3cnc(CN4CCCC4)n3C)cc2)C(=O)C[C@@H](Cc2cccc(F)c2)C(=O)N(C)[C@@H](C)CNC(=O)C[C@H](Cc2ccc(Cl)cc2)N(C)C1=O [Compound 155, (2S,5S,8S,13S,16R)-1-(4-chloro-2-(4-(1-methyl-2-(pyrrolidin-1-ylmethyl)-1H-imidazol-5-yl)phenoxy)benzyl)-8-(4-chlorobenzyl)-16-(3-fluorobenzyl)-5-(methoxymethyl)-2,7,13,14-tetramethyl-1,4,7,11,14-pentaazacyclooctadecane-3,6,10,15,18-pentaone]
108.38	3.7	COCC[C@H]1C(=O)N[C@@H](COC)C(=O)N(C)[C@@H](Cc2ccc(Cl)cc2)CC(=O)NC[C@H](C)N(C)C(=O)[C@H](Cc2ccccc2)CC(=O)N1Cc1ccc(Cl)cc1Oc1ccc(-c2cnc(CN(C)C)n2C)cc1 [Compound 156, (2S,5S,8S,13S,16R)-16-benzyl-1-(4-chloro-2-(4-(2-((dimethylamino)methyl)-1-methyl-1H-imidazol-5-yl)phenoxy)benzyl)-8-(4-chlorobenzyl)-2-(2-methoxyethyl)-5-(methoxymethyl)-7,13,14-trimethyl-1,4,7,11,14-pentaazacyclooctadecane-3,6,10,15,18-pentaone]
89.28	1.8	COC[C@@H]1NC(=O)[C@H](C)N(Cc2ccc(Cl)cc2Oc2ccc(-c3cnc(CN4CC5(COC5)C4)n3C)cc2)C(=O)C[C@@H](Cc2ccccc2)C(=O)N(C)[C@H]2CCCC[C@@H]2NC(=O)C[C@H](Cc2ccc(Cl)cc2)N(C)C1=O [Compound 157, (4S,7S,10S,14R,16aS,20aS)-11-(2-(4-(2-(2-oxa-6-azaspiro[3.3]heptan-6-ylmethyl)-1-methyl-1H-imidazol-5-yl)phenoxy)-4-chlorobenzyl)-14-benzyl-4-(4-chlorobenzyl)-7-(methoxymethyl)-5,10,16-trimethylhexadecahydrobenzo[l][1,4,7,11,14]pentaazacyclooctadecine-2,6,9,12,15(3H)-pentaone]
98.98	1.4	COC[C@@H]1NC(=O)[C@H](CCCN2CCOCC2)N(Cc2ccc(Cl)cc2Oc2ccc(-c3cnc(CN(C)C)n3C)cc2)C(=O)C[C@@H](Cc2ccccc2)C(=O)N(C)[C@@H](C)CNC(=O)C[C@H](Cc2ccc(Cl)cc2)N(C)C1=O [Compound 158, (2S,5S,8S,13S,16R)-16-benzyl-1-(4-chloro-2-(4-(2-((dimethylamino)methyl)-1-methyl-1H-imidazol-5-yl)phenoxy)benzyl)-8-(4-chlorobenzyl)-5-(methoxymethyl)-7,13,14-trimethyl-2-(3-morpholinopropyl)-1,4,7,11,14-pentaazacyclooctadecane-3,6,10,15,18-pentaone]
55.26	74	COC[C@@H]1NC(=O)[C@H](C)N(Cc2ccc(Cl)cc2Oc2ccc(-c3cnc(CN(C)C)n3C)cc2)C(=O)C[C@@H](OC)C(=O)N(C)[C@@H](C)CNC(=O)C[C@H](Cc2ccc(Cl)cc2)N(C)C1=O [Compound 159, (2S,5S,8S,13S,16R)-1-(4-chloro-2-(4-(2-((dimethylamino)methyl)-1-methyl-1H-imidazol-5-yl)phenoxy)benzyl)-8-(4-chlorobenzyl)-16-methoxy-5-(methoxymethyl)-2,7,13,14-tetramethyl-1,4,7,11,14-pentaazacyclooctadecane-3,6,10,15,18-pentaone]
91.45	7.6	C[C@H]1CNC(=O)C[C@H](Cc2ccc(Cl)cc2)N(C)C(=O)[C@H](CC(=O)N(C)C)NC(=O)[C@H](C)N(Cc2ccc(Cl)cc2Oc2ccc(-c3cnc(CN(C)C)n3C)cc2)C(=O)C[C@@H](Cc2ccccc2)C(=O)N1C [Compound 160, 2-((2S,5S,8S,13S,16R)-16-benzyl-1-(4-chloro-2-(4-(2-((dimethylamino)methyl)-1-methyl-1H-imidazol-5-yl)phenoxy)benzyl)-8-(4-chlorobenzyl)-2,7,13,14-tetramethyl-3,6,10,15,18-pentaoxo-1,4,7,11,14-pentaazacyclooctadecan-5-yl)-N,N-dimethylacetamide]
92.62	14.7	COC[C@@H]1NC(=O)[C@H](C)N(Cc2ccc(Cl)cc2Oc2ccc(-c3cnc(CN(C)C)n3C)cc2)C(=O)C[C@@H](C)C(=O)N(C)[C@@H](C)CNC(=O)C[C@H](Cc2ccc(Cl)cc2)N(C)C1=O [Compound 161, (2S,5S,8S,13S,16R)-1-(4-chloro-2-(4-(2-((dimethylamino)methyl)-1-methyl-1H-imidazol-5-yl)phenoxy)benzyl)-8-(4-chlorobenzyl)-5-(methoxymethyl)-2,7,13,14,16-pentamethyl-1,4,7,11,14-pentaazacyclooctadecane-3,6,10,15,18-pentaone]
91.41	2.9	COC[C@@H]1NC(=O)[C@H](C)N(Cc2ccc(Cl)cc2Oc2ccc(-c3cnc4n3CCN(C(=O)[C@H]3CCOC3)C4)cc2)C(=O)C[C@@H](Cc2ccccc2)C(=O)N(C)[C@@H](C)CNC(=O)C[C@H](Cc2ccc(Cl)cc2)N(C)C1=O [Compound 162, (2S,5S,8S,13S,16R)-16-benzyl-1-(4-chloro-2-(4-(7-((S)-tetrahydrofuran-3-carbonyl)-5,6,7,8-tetrahydroimidazo[1,2-a]pyrazin-3-yl)phenoxy)benzyl)-8-(4-chlorobenzyl)-5-(methoxymethyl)-2,7,13,14-tetramethyl-1,4,7,11,14-pentaazacyclooctadecane-3,6,10,15,18-pentaone]
84.60	135	COC[C@@H]1NC(=O)[C@H](C)N(Cc2ccc(Cl)cc2Oc2ccc(-n3cnc(C(=O)NC(C)C)c3C)cc2)C(=O)C[C@@H](Cc2ccccc2)C(=O)N(C)[C@@H](C)CNC(=O)C[C@H](Cc2ccc(Cl)cc2)N(C)C1=O [Compound 163, 1-(4-(2-(((2S,5S,8S,13S,16R)-16-benzyl-8-(4-chlorobenzyl)-5-(methoxymethyl)-2,7,13,14-tetramethyl-3,6,10,15,18-pentaoxo-1,4,7,11,14-pentaazacyclooctadecan-1-yl)methyl)-5-chlorophenoxy)phenyl)-N-isopropyl-5-methyl-1H-imidazole-4-carboxamide]
